The record followed here is US20230022400A1, “IMMUNOMODULATORS” (Bristol-Myers Squibb Company, priority 2019, published 2023).

SMILES strings stand for the structures. Where a SMILES comes first, the peptide text is derived from it. Bridges are numbered along the chain shown (N, C = ends). [ ]: non-standard residue; d: D form. The star is where a group is joined. Trp(1-CH2CO2Me) = COC(=O)Cn1cc(C[C@H](N)C(=O)O)c2ccccc21; Trp(1-CH2COOH) = N[C@@H](Cc1cn(CC(=O)O)c2ccccc12)C(=O)O; X7 = Cc1ccc(-n2c3ccccc3c3c(*)nc(C)nc32)nc1; X22 = Cc1ccc2c(c1)[nH]c1nc(Cl)nc(*)c12; Hyp = O=C(O)[C@@H]1C[C@@H](O)CN1; X8 = Cn1cnc2c(Cl)nc3sc(*)nc3c21; X10 = c1ccc2c(c1)sc1ncnc(*)c12; NMeNle = CCCC[C@H](NC)C(=O)O; X18 = c1ccc(-c2ccnc(*)n2)cc1; X17 = Clc1cc2nc(*)sc2cc1Cl; NMeA = CN[C@@H](C)C(=O)O; Dab = NCC[C@H](N)C(=O)O; Dap = NC[C@H](N)C(=O)O; X1 = c1ccc2sc(*)nc2c1; X3 = N#Cc1ccc(*)nc1

The target in the assay is T1, PD-1/PD-L1 interaction (PD-1-Ig / PD-L1-His) (Homo sapiens, UniProt Q9NZQ7).
T1 construct: TVMV protease site (linker) (C); made in house; host or cells: HEK293T cells
T1 sequence (Q9NZQ7 18-239): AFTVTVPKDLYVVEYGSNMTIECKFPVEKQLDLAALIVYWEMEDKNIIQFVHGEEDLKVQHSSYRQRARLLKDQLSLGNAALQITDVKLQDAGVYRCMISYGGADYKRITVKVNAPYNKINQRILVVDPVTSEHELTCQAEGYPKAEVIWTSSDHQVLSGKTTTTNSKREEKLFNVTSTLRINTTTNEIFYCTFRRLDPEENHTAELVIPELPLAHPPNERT
The assay is described as follows: PD-1/PD-L1 Homogenous Time-Resolved Fluorescence (HTRF) binding assay. The note with it: PD-L1-His 10 nM final, PD-1-Ig 20 nM final; inhibitors pre-incubated with PD-L1-His for 15 m. The source says:
The ability of the compounds of formula (I) to bind to PD-L1 was investigated using a PD-1/PD-L1 Homogenous Time-Resolved Fluorescence (HTRF) binding assay.
The interaction of PD-1 and PD-L1 can be assessed using soluble, purified preparations of the extracellular domains of the two proteins. The PD-1 and PD-L1 protein extracellular domains were expressed as fusion proteins with detection tags, for PD-1, the tag was the Fc portion of Immunoglobulin (PD-1-Ig) and for PD-L1 it was the 6 histidine motif (PD-L1-His). All binding studies were performed in an HTRF assay buffer consisting of dPBS supplemented with 0.1% […] bovine serum albumin and 0.05% (v/v) Tween-20. For the h/PD-L1-His binding assay, inhibitors were pre-incubated with PD-L1-His (10 nM final) for 15 m in 4 μl of assay buffer, followed by addition of PD-1-Ig (20 nM final) in 1 μl of assay buffer and further incubation for 15 m. HTRF detection was achieved using europium crypate-labeled anti-Ig (1 nM final) and allophycocyanin (APC) labeled anti-His (20 nM final). Antibodies were diluted in HTRF detection buffer and 5 μl was dispensed on top of the binding reaction. The reaction mixture was allowed to equilibrate for 30 minutes and the resulting signal (665 nm/620 nm ratio) was obtained using an EnVision fluorometer. Additional binding assays were established between the human proteins PD-1-Ig/PD-L2-His (20 & 5 nM, respectively) and CD80-His/PD-L1-Ig (100 & 10 nM, respectively).
Recombinant Proteins: Human PD-1 (25-167) with a C-terminal human Fc domain of immunoglobulin G (Ig) epitope tag [hPD-1 (25-167)-3S-IG] and human PD-L1 (18-239) with a C-terminal His epitope tag [hPD-L1(18-239)-TVMV-His] were expressed in HEK293T cells and purified sequentially by ProteinA affinity chromatography and size exclusion chromatography. Human PD-L2-His and CD80-His was obtained through commercial sources.
Table 1 lists the IC50 values for representative examples of this disclosure measured in the PD-1/PD-L1 Homogenous Time-Resolved Fluorescence (HTRF) binding assay.
In general terms: In TR-FRET formats the signal depends on donor and acceptor labels being close together.
The term IC50 denotes the concentration at which inhibition is half-maximal. Take `CCCC[C@H]1C(=O)N(C)[C@@H](CCCC)C(=O)N[C@@H](CC(C)C)C(=O)N[C@H](C(=O)NCC(N)=O)CSCC(=O)N[C@@H](Cc2ccc(O)cc2)C(=O)N(C)[C@@H](C)C(=O)N[C@@H](CC(N)=O)C(=O)N2CCC[C@H]2C(=O)N[C@@H](CNc2ncnc3sc4ccccc4c23)C(=O)N[C@@H](CC(C)C)C(=O)N2C[C@H](O)C[C@H]2C(=O)N[C@@H](Cc2c[nH]c3ccccc23)C(=O)N[C@@H](CCNc2ncnc3sc4ccccc4c23)C(=O)N[C@@H](Cc2cn(CC(=O)O)c3ccccc23)C(=O)N1C` [Compound 21015] ({CH2CO}-Y[NMeA]NP[Dap](X10)L[Hyp]W[Dab](X10)[Trp(1-CH2COOH)][NMeNle][NMeNle]LCG-NH2; thioether N-14): the half-maximal inhibitory concentration (IC50) was 18 nM. The compound `CCCC[C@H]1C(=O)N(C)[C@@H](CCCC)C(=O)N[C@@H](CC(C)C)C(=O)N[C@H](C(=O)NCC(N)=O)CSCC(=O)N[C@@H](Cc2ccc(O)cc2)C(=O)N(C)[C@@H](C)C(=O)N[C@@H](CC(N)=O)C(=O)N2CCC[C@H]2C(=O)N[C@@H](CNc2nc3ccccc3s2)C(=O)N[C@@H](CC(C)C)C(=O)N2C[C@H](O)C[C@H]2C(=O)N[C@@H](Cc2c[nH]c3ccccc23)C(=O)N[C@@H](CCN)C(=O)N[C@@H](Cc2cn(CC(=O)O)c3ccccc23)C(=O)N1C` [Compound 11001] ({CH2CO}-Y[NMeA]NP[Dap](X1)L[Hyp]W[Dab][Trp(1-CH2COOH)][NMeNle][NMeNle]LCG-NH2; thioether N-14) showed a 50% inhibitory concentration (IC50) of 4 nM. The same measure for `CCCC[C@H]1C(=O)N(C)[C@@H](CCCC)C(=O)N[C@@H](CC(C)C)C(=O)N[C@H](C(=O)NCC(N)=O)CSCC(=O)N[C@@H](Cc2ccc(O)cc2)C(=O)N(C)[C@@H](C)C(=O)N[C@@H](CC(N)=O)C(=O)N2CCC[C@H]2C(=O)N[C@@H](CNc2nc3c(nc(Cl)c4ncn(C)c43)s2)C(=O)N[C@@H](CC(C)C)C(=O)N2C[C@H](O)C[C@H]2C(=O)N[C@@H](Cc2c[nH]c3ccccc23)C(=O)N[C@@H](CCN)C(=O)N[C@@H](Cc2cn(CC(=O)O)c3ccccc23)C(=O)N1C` [Compound 21001] ({CH2CO}-Y[NMeA]NP[Dap](X8)L[Hyp]W[Dab][Trp(1-CH2COOH)][NMeNle][NMeNle]LCG-NH2; thioether N-14): 2.4 nM. The same measure for `CCCC[C@H]1C(=O)N(C)[C@@H](CCCC)C(=O)N[C@@H](CC(C)C)C(=O)N[C@H](C(=O)NCC(N)=O)CSCC(=O)N[C@@H](Cc2ccc(O)cc2)C(=O)N(C)[C@@H](C)C(=O)N[C@@H](CC(N)=O)C(=O)N2CCC[C@H]2C(=O)N[C@@H](CNc2nc3cc(Cl)c(Cl)cc3s2)C(=O)N[C@@H](CC(C)C)C(=O)N2C[C@H](O)C[C@H]2C(=O)N[C@@H](Cc2c[nH]c3ccccc23)C(=O)N[C@@H](CCNc2nc3cc(Cl)c(Cl)cc3s2)C(=O)N[C@@H](Cc2cn(CC(=O)O)c3ccccc23)C(=O)N1C` [Compound 11005] ({CH2CO}-Y[NMeA]NP[Dap](X17)L[Hyp]W[Dab](X17)[Trp(1-CH2COOH)][NMeNle][NMeNle]LCG-NH2; thioether N-14): 89 nM; for `CCCC[C@H]1C(=O)N(C)[C@@H](CCCC)C(=O)N[C@@H](CC(C)C)C(=O)N[C@H](C(=O)NCC(N)=O)CSCC(=O)N[C@@H](Cc2ccc(O)cc2)C(=O)N(C)[C@@H](C)C(=O)N[C@@H](CC(N)=O)C(=O)N2CCC[C@H]2C(=O)N[C@@H](CNc2nc3ccccc3s2)C(=O)N[C@@H](CC(C)C)C(=O)N2C[C@H](O)C[C@H]2C(=O)N[C@@H](Cc2c[nH]c3ccccc23)C(=O)N[C@@H](CCN)C(=O)N[C@@H](Cc2cn(CC(=O)O)c3ccccc23)C(=O)N1C` [Compound 11012] ({CH2CO}-Y[NMeA]NP[Dap](X1)L[Hyp]W[Dab][Trp(1-CH2COOH)][NMeNle][NMeNle]LCG-NH2; thioether N-14): 7.9 nM; for `CCCC[C@H]1C(=O)N(C)[C@@H](CCCC)C(=O)N[C@@H](CC(C)C)C(=O)N[C@H](C(=O)NCC(N)=O)CSCC(=O)N[C@@H](Cc2ccc(O)cc2)C(=O)N(C)[C@@H](C)C(=O)N[C@@H](CC(N)=O)C(=O)N2CCC[C@H]2C(=O)N[C@@H](CNc2nc(Cl)nc3[nH]c4cc(C)ccc4c23)C(=O)N[C@@H](CC(C)C)C(=O)N2C[C@H](O)C[C@H]2C(=O)N[C@@H](Cc2c[nH]c3ccccc23)C(=O)N[C@@H](CCN)C(=O)N[C@@H](Cc2cn(CC(=O)O)c3ccccc23)C(=O)N1C` [Compound 21007] ({CH2CO}-Y[NMeA]NP[Dap](X22)L[Hyp]W[Dab][Trp(1-CH2COOH)][NMeNle][NMeNle]LCG-NH2; thioether N-14): 4.4 nM. In turn, `CCCC[C@H]1C(=O)N(C)[C@@H](CCCC)C(=O)N[C@@H](CC(C)C)C(=O)N[C@H](C(=O)NCC(N)=O)CSCC(=O)N[C@@H](Cc2ccc(O)cc2)C(=O)N(C)[C@@H](C)C(=O)N[C@@H](CC(N)=O)C(=O)N2CCC[C@H]2C(=O)N[C@@H](CNc2nccc(-c3ccccc3)n2)C(=O)N[C@@H](CC(C)C)C(=O)N2C[C@H](O)C[C@H]2C(=O)N[C@@H](Cc2c[nH]c3ccccc23)C(=O)N[C@@H](CCNc2nccc(-c3ccccc3)n2)C(=O)N[C@@H](Cc2cn(CC(=O)O)c3ccccc23)C(=O)N1C` [Compound 1003] ({CH2CO}-Y[NMeA]NP[Dap](X18)L[Hyp]W[Dab](X18)[Trp(1-CH2COOH)][NMeNle][NMeNle]LCG-NH2; thioether N-14) showed an IC50 of 8.3 nM. The value for `CCCC[C@H]1C(=O)N(C)[C@@H](CCCC)C(=O)N[C@@H](CC(C)C)C(=O)N[C@H](C(=O)NCC(N)=O)CSCC(=O)N[C@@H](Cc2ccc(O)cc2)C(=O)N(C)[C@@H](C)C(=O)N[C@@H](CC(N)=O)C(=O)N2CCC[C@H]2C(=O)N[C@@H](CNc2nc(C)nc3c2c2ccccc2n3-c2ccc(C)cn2)C(=O)N[C@@H](CC(C)C)C(=O)N2C[C@H](O)C[C@H]2C(=O)N[C@@H](Cc2c[nH]c3ccccc23)C(=O)N[C@@H](CCN)C(=O)N[C@@H](Cc2cn(CC(=O)O)c3ccccc23)C(=O)N1C` [Compound 21005] ({CH2CO}-Y[NMeA]NP[Dap](X7)L[Hyp]W[Dab][Trp(1-CH2COOH)][NMeNle][NMeNle]LCG-NH2; thioether N-14) was 25 nM. The value for `CCCC[C@H]1C(=O)N(C)[C@@H](CCCC)C(=O)N[C@@H](CC(C)C)C(=O)N[C@H](C(=O)NCC(N)=O)CSCC(=O)N[C@@H](Cc2ccc(O)cc2)C(=O)N(C)[C@@H](C)C(=O)N[C@@H](CC(N)=O)C(=O)N2CCC[C@H]2C(=O)N[C@@H](CNc2nc3c(nc(Cl)c4ncn(C)c43)s2)C(=O)N[C@@H](CC(C)C)C(=O)N2C[C@H](O)C[C@H]2C(=O)N[C@@H](Cc2c[nH]c3ccccc23)C(=O)N[C@@H](CCNc2nc3c(nc(Cl)c4ncn(C)c43)s2)C(=O)N[C@@H](Cc2cn(CC(=O)O)c3ccccc23)C(=O)N1C` [Compound 21004] ({CH2CO}-Y[NMeA]NP[Dap](X8)L[Hyp]W[Dab](X8)[Trp(1-CH2COOH)][NMeNle][NMeNle]LCG-NH2; thioether N-14) was 5.7 nM. The same measure for `CCCC[C@H]1C(=O)N(C)[C@@H](CCCC)C(=O)N[C@@H](CC(C)C)C(=O)N[C@H](C(=O)NCC(N)=O)CSCC(=O)N[C@@H](Cc2ccc(O)cc2)C(=O)N(C)[C@@H](C)C(=O)N[C@@H](CC(N)=O)C(=O)N2CCC[C@H]2C(=O)N[C@@H](CNc2nc3ccccc3s2)C(=O)N[C@@H](CC(C)C)C(=O)N2C[C@H](O)C[C@H]2C(=O)N[C@@H](Cc2c[nH]c3ccccc23)C(=O)N[C@@H](CCNc2nc3ccccc3s2)C(=O)N[C@@H](Cc2cn(CC(=O)OC)c3ccccc23)C(=O)N1C` [Compound 12001] ({CH2CO}-Y[NMeA]NP[Dap](X1)L[Hyp]W[Dab](X1)[Trp(1-CH2CO2Me)][NMeNle][NMeNle]LCG-NH2; thioether N-14): 138 nM.

In the case of `CCCC[C@H]1C(=O)N(C)[C@@H](CCCC)C(=O)N[C@@H](CC(C)C)C(=O)N[C@H](C(=O)NCC(N)=O)CSCC(=O)N[C@@H](Cc2ccc(O)cc2)C(=O)N(C)[C@@H](C)C(=O)N[C@@H](CC(N)=O)C(=O)N2CCC[C@H]2C(=O)N[C@@H](CNc2ccc(C#N)cn2)C(=O)N[C@@H](CC(C)C)C(=O)N2C[C@H](O)C[C@H]2C(=O)N[C@@H](Cc2c[nH]c3ccccc23)C(=O)N[C@@H](CCNc2ccc(C#N)cn2)C(=O)N[C@@H](Cc2cn(CC(=O)O)c3ccccc23)C(=O)N1C` [Compound 1002] ({CH2CO}-Y[NMeA]NP[Dap](X3)L[Hyp]W[Dab](X3)[Trp(1-CH2COOH)][NMeNle][NMeNle]LCG-NH2; thioether N-14), the IC50 is 4.5 nM.
